Measurements as given in the supplement of paper PMC8149375.
“And” between values parts separate entries of the source, which are not always exact repeats. Equal values may be shown once.

Legend:
Settings in all cases: treatment: drug alone; 5 days
[1] = test system: 769-P; experiment: GI50, drug alone; higher = less potent
Description: (§1)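 Primary HTS: 8 RCC cell lines treated with 8 doses (up to 10 uM) of each library drug alone for 5 days; viability read by CellTiter-Glo and normalised to DMSO. GI50 was fitted with XLfit (4-parameter), AUC is the area under the dose-response curve, and minimum viability is the lowest fraction of DMSO viability across doses.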

[2] = test system: 786-O; experiment: GI50, drug alone; higher = less potent
Description: as §1

[3] = test system: A498; experiment: GI50, drug alone; higher = less potent
Description: as §1

[4] = test system: ACHN; experiment: GI50, drug alone; higher = less potent
Description: as §1

[5] = test system: CAKI-1; experiment: GI50, drug alone; higher = less potent
Description: as §1

[6] = test system: SN12C; experiment: GI50, drug alone; higher = less potent
Description: as §1

[7] = test system: TK-10; experiment: GI50, drug alone; higher = less potent
Description: as §1

[8] = test system: UO-31; experiment: GI50, drug alone; higher = less potent
Description: as §1

[9] = test system: 769-P; experiment: minimum viability across doses, drug alone, relative to DMSO (fraction); higher = less growth inhibition
Description: as §1

[10] = test system: 786-O; experiment: as above
Description: as §1

[11] = test system: A498; experiment: as above
Description: as §1

[12] = test system: ACHN; experiment: as above
Description: as §1

[13] = test system: CAKI-1; experiment: as above
Description: as §1

[14] = test system: SN12C; experiment: as above
Description: as §1

[15] = test system: TK-10; experiment: as above
Description: as §1

[16] = test system: UO-31; experiment: as above
Description: as §1

[17] = test system: 769-P; experiment: AUC of dose-response viability curve, drug alone (arbitrary (AUC of normalised viability)); higher = less growth inhibition
Description: as §1

[18] = test system: 786-O; experiment: as above
Description: as §1

[19] = test system: A498; experiment: as above
Description: as §1

[20] = test system: ACHN; experiment: as above
Description: as §1

[21] = test system: CAKI-1; experiment: as above
Description: as §1

[22] = test system: SN12C; experiment: as above
Description: as §1

[23] = test system: TK-10; experiment: as above
Description: as §1

[24] = test system: UO-31; experiment: as above
Description: as §1

SMILES	GI50, drug alone [1]	GI50, drug alone [2]	GI50, drug alone [3]	GI50, drug alone [4]	GI50, drug alone [5]	GI50, drug alone [6]	GI50, drug alone [7]	GI50, drug alone [8]	minimum viability across doses [9]	minimum viability across doses [10]	minimum viability across doses [11]	minimum viability across doses [12]	minimum viability across doses [13]	minimum viability across doses [14]	minimum viability across doses [15]	minimum viability across doses [16]	AUC of dose-response viability curve [17]	AUC of dose-response viability curve [18]	AUC of dose-response viability curve [19]	AUC of dose-response viability curve [20]	AUC of dose-response viability curve [21]	AUC of dose-response viability curve [22]	AUC of dose-response viability curve [23]	AUC of dose-response viability curve [24]
COc1cc2ncnc(Nc3ccc(F)c(Cl)c3)c2cc1NC(=O)/C=C/CN1CCCCC1	210 nM	24.3 nM	3000 nM	50.8 nM	1300 nM	1360 nM	146 nM	2820 nM	0.0108	0.0062	0.0166	0.00434	0.00809	0.00743	0.0112	0.0173	1.85	1.39	3.2	1.4	2.17	2.09	1.7	2.7
C[C@@H](Oc1cc(-c2cnn(C3CCNCC3)c2)cnc1N)c1c(Cl)ccc(F)c1Cl	6060 nM	1840 nM	9410 nM	4030 nM	4010 nM	2430 nM	5340 nM	4170 nM	0.117	0.0211	0.346	0.225	0.0408	0.154	0.239	0.169	3.14	2.67	3.48	3.07	3.06	2.68	3.23	3.1
COc1cc2c(Oc3ccc(NC(=O)C4(C(=O)Nc5ccc(F)cc5)CC4)cc3F)ccnc2cc1OCCCN1CCOCC1	2910 nM	1320 nM	3260 nM	1140 nM	575 nM	1200 nM	1070 nM	2910 nM	0.0122	0.00765	0.0481	0.00485	0.00629	0.0104	0.00697	0.0119	2.75	2.39	3.15	2.6	2.12	2.34	2.37	3.04
O=C1NC(=O)/C(=C/c2ccc3nccc(-c4ccncc4)c3c2)S1	6260 nM	450 nM	4570 nM	1090 nM	412 nM	1160 nM	2290 nM	498 nM	0.43	0.216	0.341	0.219	0.125	0.26	0.467	0.0334	2.87	2.19	2.97	2.48	2.21	2.4	2.63	2.45
CO[C@@H](C(=O)N1Cc2[nH]nc(NC(=O)c3ccc(N4CCN(C)CC4)cc3)c2C1)c1ccccc1	8850 nM and 8390 nM	227 nM and 213 nM	8180 nM and > 10000 nM	1300 nM and 603 nM	1110 nM and 960 nM	1190 nM and 929 nM	2640 nM and 1850 nM	> 10000 nM	0.463 and 0.473	0.00938 and 0.00426	0.516 and 0.594	0.176 and 0.142	0.139 and 0.0977	0.174 and 0.144	0.174 and 0.139	0.7 and 0.698	3.09 and 3.4	1.52 and 1.67	3.26 and 3.77	2.19 and 2.18	2.45 and 2.51	2.38 and 2.35	2.6 and 2.61	3.34 and 3.7
COc1ncc(-c2ccc3nccc(-c4ccnnc4)c3c2)cc1NS(=O)(=O)c1ccc(F)cc1F	84.2 nM	29.6 nM	242 nM	63.1 nM	28.9 nM	76.6 nM	36.5 nM	92 nM	0.0336	0.00239	0.283	0.0976	0.0314	0.0986	0.0455	0.00994	1.4	1.11	2.32	1.46	1.08	1.49	1.23	1.49
CC(C)(C)c1nc(-c2cccc(NS(=O)(=O)c3c(F)cccc3F)c2F)c(-c2ccnc(N)n2)s1	> 10000 nM	3870 nM	> 10000 nM	381 nM	567 nM	> 10000 nM	5140 nM	> 10000 nM	0.842	0.463	0.91	0.115	0.163	0.942	0.447	0.75	3.52	2.47	4.27	2.19	2.67	3.69	2.54	4.68
CC(=O)Nc1cccc(-n2c(=O)n(C3CC3)c(=O)c3c(Nc4ccc(I)cc4F)n(C)c(=O)c(C)c32)c1	567 nM	58.7 nM	> 10000 nM	215 nM	228 nM	1620 nM	118 nM	4610 nM	0.257	0.332	0.735	0.312	0.201	0.405	0.289	0.382	2.26	1.76	3.29	1.81	1.93	2.39	1.67	3.28
CCn1c(-c2nonc2N)nc2c(C#CC(C)(C)O)ncc(OC[C@H]3CCCNC3)c21	> 10000 nM	396 nM	> 10000 nM	9280 nM	5920 nM	> 10000 nM	4510 nM	> 10000 nM	0.839	0.288	0.979	0.434	0.432	0.693	0.469	0.769	3.15	1.97	3.82	3.03	2.74	3.06	2.59	3.19
Cc1ccccc1-n1c(Cn2cnc3c(N)ncnc32)nc2cccc(C)c2c1=O	> 10000 nM	7980 nM	> 10000 nM	> 10000 nM	> 10000 nM	> 10000 nM	> 10000 nM	> 10000 nM	0.856	0.434	0.955	0.813	0.717	0.814	0.758	0.821	3.25	2.46	3.88	3.17	3.12	3.12	2.93	3.41
CCc1cc(Nc2nccc(-c3c(-c4ccc(OC)c(C(=O)Nc5c(F)cccc5F)c4)nc4ccccn34)n2)c(OC)cc1N1CCC(N2CCN(S(C)(=O)=O)CC2)CC1	> 10000 nM	> 10000 nM	> 10000 nM	> 10000 nM	> 10000 nM	> 10000 nM	> 10000 nM	> 10000 nM	0.828	0.785	1.04	0.804	0.635	0.858	0.865	1	3.26	3.37	4.54	3.03	3.12	3.17	3.23	5.43
C#Cc1cccc(Nc2ncnc3cc(OCCOC)c(OCCO)cc23)c1	3480 nM	> 10000 nM	> 10000 nM	472 nM	2840 nM	> 10000 nM	2610 nM	> 10000 nM	0.396	0.531	0.994	0.097	0.159	0.645	0.402	1.05	2.71	2.98	4.38	2.13	2.93	3.24	2.39	4.22
CC1(COc2ccc3c(c2)ncn3-c2ccc3cccc(N4CCC(N)CC4)c3n2)COC1	5050 nM	538 nM	3470 nM	2730 nM	3200 nM	2190 nM	4880 nM	1370 nM	0.283	0.00547	0.0171	0.0169	0.319	0.0442	0.16	0.0124	2.25	1.83	3.5	2.98	2.69	2.58	2.88	2.67
Cn1cc(C2=C(c3cn(C4CCN(Cc5ccccn5)CC4)c4ccccc34)C(=O)NC2=O)c2ccccc21	> 10000 nM	> 10000 nM	> 10000 nM	> 10000 nM	> 10000 nM	> 10000 nM	> 10000 nM	> 10000 nM	0.834	0.805	1.1	0.863	0.814	0.861	0.698	0.922	3.34	3.23	4.23	3.3	3.55	3.33	3.24	4.69
CCn1cc(-c2ccnc3[nH]c(-c4cccc(CN(C)C)c4)cc23)c(-c2ccc(NC(=O)N(C)C)cc2)n1	1440 nM	84.3 nM	3070 nM	387 nM	490 nM	686 nM	1530 nM	6090 nM	0.165	0.0121	0.121	0.0251	0.0471	0.0272	0.0985	0.0615	2.8	1.97	3.74	2.08	2.3	2.2	2.54	5.13
CCc1cnn2c(NCc3ccc[n+]([O-])c3)cc(N3CCCC[C@H]3CCO)nc12	29.8 nM	6.29 nM	13.6 nM	17 nM	14.7 nM	14.7 nM	21.8 nM	11 nM	0.0153	0.00554	0.00896	0.011	0.0724	0.0122	0.128	0.0105	1.04	0.398	0.65	0.783	0.874	0.716	1.15	0.612
C[C@@H](Oc1cc(-n2cnc3ccc(CN4CCN(C)CC4)cc32)sc1C(N)=O)c1ccccc1C(F)(F)F	69.7 nM	19.4 nM	> 10000 nM	89.1 nM	153 nM	120 nM	1340 nM	44.9 nM	0.0562	0.00395	0.599	0.172	0.17	0.234	0.235	0.00269	1.49	0.807	2.98	1.75	1.77	1.92	2.36	1.4
Cc1nc(Nc2ncc(C(=O)Nc3c(C)cccc3Cl)s2)cc(N2CCN(CCO)CC2)n1	149 nM	179 nM	> 10000 nM	78.5 nM	78.8 nM	2300 nM	25.7 nM	135 nM	0.0457	0.0837	0.631	0.0527	0.0431	0.377	0.0612	0.0768	1.7	1.9	3.35	1.52	1.45	2.35	1.11	1.93
CNC(=O)c1c(F)cccc1Nc1nc(Nc2cc3c(cc2OC)CCN3C(=O)CN(C)C)nc2[nH]ccc12	2400 nM	1490 nM	8550 nM	3020 nM	3460 nM	4020 nM	3140 nM	8350 nM	0.016	0.00507	0.0165	0.00292	0.00594	0.00561	0.142	0.0181	2.73	2.4	4.86	2.82	2.94	2.88	2.69	4.52
